In patent US20230183246A1, “CONTINUOUS FLOW SONOGASHIRA COUPLING SYNTHESIS METHOD” (Purdue Research Foundation, priority 2020, published 2023):
Several values for one entry are separate records, joined by “and”; a condition that tells them apart may be missing. Equal values may be shown once.

Legend:
FLT-3 = settings: cited from earlier work
RET and its mutant forms = settings: compared with reported RET inhibitors; cited from earlier work
solubility in DMF = format: physicochemical
Protocol: The reaction set-up used a T-mixer at 20° C. prior to injecting the solution of 4 into the heated glass reactor chip that was held at 80 or 95° C. […] Based on these findings, we sought to modify our strategy for execution of this reaction in flow.

solubility (solubility in DMF; 20° C. in DMF)	solubility (solubility in DMF; 20° C. in DMF, after recrystallizing twice (EtOH, then EtOAc))	solubility (solubility in DMF; 55° C. in DMF)	Compound	potency toward inhibition of all FLT-3 forms (FLT-3)	inhibition activity of RET and its mutant forms (RET and its mutant forms)
–	–	–	CN1CCN(Cc2ccc(NC(=O)c3cncc(C#Cc4cnc(N)c5ncccc45)c3)cc2C(F)(F)F)CC1 [HSN608, 5-((8-Amino-1,7-naphthyridin-5-yl)ethynyl)-N-(4-((4-methylpiperazin-1-yl)methyl)-3-(trifluoromethyl)phenyl)nicotinamide]	high potency	better than the reported RET inhibitors
14.6 mg/ml and 0.065 M	0.0785 M and 17.6 mg/ml	38.1 mg/ml and 0.170 M	Nc1ncc(Br)c2cccnc12 [compound 4, 5-bromo-8-amino-1,7-naphthyridine]	–	–
